According to patent US20120244226A1, “TREATMENT COMPOSITION AND METHOD” (DEC INTERNATIONAL NZ LIMITED, priority 2009, published 2012):
Entries after “also recorded” stand apart in the source; their conditions may differ.

What was measured:
[1] = test system: tumor necrosis factor-α (TNF-α) produced by LPS activated neutrophils; test: TNF-α production by LPS activated neutrophils (ELISA); assay type: cell-based, rat
Procedure: (§1) The anti-inflammatory properties of the cationic fraction, IDP, and the combination of IDP with chondroitin and glucosamine were determined by measuring their ability to inhibit the production of the inflammatory compounds, tumor necrosis factor-α (TNF-α) and interleukin-6 (IL-6) produced by LPS activated neutrophils. […] Neutrophils were isolated from rat blood and incubated in the presence of LPS. LPS is derived from bacterial cell walls and is used to mimic a 'bacterial infection'. […] Two of these cytokine are TNF-α and IL-6. The concentrations of both cytokines produced by neutrophils exposed to LPS and the various test substances are summarised graphically in FIGS. 1 and 2 respectively. […] Aliquots from each set of triplicates were combined, and duplicates assayed for cytokine concentrations. The plate blank was subtracted from each individual data point. A VersaMax 96-well plate reader was used to colorimetrically assess the production of TNF-α and IL-6 as determined by the ELISA, using Rat TNF-α ELISA kit, R&D Systems, Cat # RTA00, and Rat IL-6 ELISA kit, R&D Systems, Cat # […]. The average cytokine concentration, standard deviation and standard error were calculated for each data set (sample and concentration). Preliminary statistical significance was assessed using independent Student t-tests at α≦0.05.

[2] = test system: interleukin-6 (IL-6) produced by LPS activated neutrophils; test: IL-6 production by LPS activated neutrophils (ELISA); assay type: cell-based, rat; settings: for effect on IL-6, in words / inhibition of IL-6 production: over the concentrations tested; for inhibition of IL-6 production: concentration not given
Procedure: as §1

[3] = 300 μg/ml, relative to LPS only control
[4] = Rattus norvegicus, Neutrophil, 100 μg/ml, relative to LPS only control
[5] = Rattus norvegicus, Neutrophil, 300 μg/ml, relative to LPS only control
[6] = Rattus norvegicus, Neutrophil, read-out: TNF-α % Inhibition
[7] = Rattus norvegicus, Neutrophil, read-out: IL-6 % Inhibition
[8] = Rattus norvegicus, Neutrophil, 4 μg/ml, relative to LPS only control
[9] = Rattus norvegicus, Neutrophil, 12 μg/ml, relative to LPS only control
[10] = Rattus norvegicus, Neutrophil, 1 μg/ml, relative to LPS only control
[11] = Rattus norvegicus, Neutrophil, 10 μg/ml, relative to LPS only control

Question: How did the “dose response on TNF-α, in words” value [1] turn out when `CC(=O)Oc1ccccc1C(=O)O` [Aspirin, acetylsalicylic acid] was run?
Answer: characteristic dose response

Question: What about the “TNF-α” value ([1]; 100 μg/ml) of the same compound?
Answer: 159.17 pg/mL

Question: And the “TNF-α” value ([1]; 300 μg/ml)?
Answer: 99.45 pg/mL

Question: And the “TNF-α % Inhibition” value [1, 3]?
Answer: 63.9%

Question: What about the inhibition at 100 µg/mL [1, 4] of the same compound?
Answer: 42.2%

Question: What about the inhibition at 300 µg/mL [1, 5] of the same compound?
Answer: 64%

Question: What about the “effect on TNF-α, in words” value ([1]; over the concentrations tested) of the same compound?
Answer: reducing both TNF-α and IL-6 levels significantly

Question: And the “dose response on IL-6, in words” value [2]?
Answer: characteristic dose response

Question: And the “IL-6” value ([2]; 100 μg/ml)?
Answer: 63.2 pg/mL

Question: What about the “IL-6” value ([2]; 300 μg/ml) of the same compound?
Answer: 0 pg/mL

Question: What about the “IL-6 % Inhibition” value [2, 3] of the same compound?
Answer: completely inhibited

Question: What about the inhibition at 100 µg/mL [2, 4] of the same compound?
Answer: 78.7%

Question: What about the inhibition at 300 µg/mL [2, 5] of the same compound?
Answer: 100%

Question: And the “effect on IL-6, in words” value [2]?
Answer: reducing both TNF-α and IL-6 levels significantly

Question: Which “TNF-α” value ([1]; 50 μM) does the source give for `CCN(CC)CCCC(C)Nc1ccnc2cc(Cl)ccc12` (stereo not shown) [Chloroquine] here?
Answer: 0 pg/mL

Question: And the “TNF-α” value ([1]; 100 μM)?
Answer: 0 pg/mL

Question: And the inhibition at 50 µM [1, 6]?
Answer: 100%

Question: And the inhibition at 100 µM [1, 6]?
Answer: 100%

Question: And the “effect on TNF-α, in words” value ([1]; over the concentrations tested)?
Answer: completely inhibiting; also recorded: completely inhibited

Question: And the “IL-6” value ([2]; 50 μM)?
Answer: 0 pg/mL

Question: What about the “IL-6” value ([2]; 100 μM) of the same compound?
Answer: 0 pg/mL

Question: What about the inhibition at 50 µM [2, 7] of the same compound?
Answer: 100%

Question: What about the inhibition at 100 µM [2, 7] of the same compound?
Answer: 100%

Question: And the “effect on IL-6, in words” value [2]?
Answer: completely inhibiting; also recorded: completely inhibited

Question: `COc1cc(/C=C/C(=O)CC(=O)/C=C/c2ccc(O)c(OC)c2)ccc1O` [Curcumin, curcumin] was tested. Which “dose response on TNF-α, in words” value [1] did it give?
Answer: no apparent dose effect

Question: And the “TNF-α” value ([1]; 4 μg/ml)?
Answer: 146.71 pg/mL

Question: And the “TNF-α” value ([1]; 12 μg/ml)?
Answer: 180.66 pg/mL

Question: What about the inhibition at 4 µg/mL [1, 8] of the same compound?
Answer: 46.7%

Question: What about the inhibition at 12 µg/mL [1, 9] of the same compound?
Answer: 34.4%

Question: What about the “inhibition of TNF-α production” value ([1]; over the concentrations tested, concentration not given) of the same compound?
Answer: approximately 50%

Question: What about the “dose response on IL-6, in words” value [2] of the same compound?
Answer: no apparent dose effect

Question: And the “IL-6” value ([2]; 4 μg/ml)?
Answer: 38.65 pg/mL

Question: What about the “IL-6” value ([2]; 12 μg/ml) of the same compound?
Answer: 31.14 pg/mL

Question: And the inhibition at 4 µg/mL [2, 8]?
Answer: 87%

Question: And the inhibition at 12 µg/mL [2, 9]?
Answer: 89.5%

Question: What about the “effect on IL-6, in words” value [2] of the same compound?
Answer: close to complete inhibition

Question: What about the “inhibition of IL-6 production” value [2] of the same compound?
Answer: 90%

Question: What does the source list for `O=C(O)Cc1ccccc1Nc1c(Cl)cccc1Cl` [Diclofenac]?
Answer: dose response on TNF-α, in words [1]: inverse dose response; TNF-α ([1]; 1 μg/ml): 132.01 pg/mL; TNF-α % Inhibition ([1]; 1 μg/ml, relative to LPS only control): 52.1%; TNF-α ([1]; 10 μg/ml): 151.97 pg/mL; TNF-α ([1]; 100 μg/ml): 342.46 pg/mL; effect on TNF-α, in words ([1]; 100 μg/ml): appeared to stimulate TNF-α; TNF-α ([1]; 100 μg/ml, listed as Voltaren (Diclofenac)): 342 pg/mL; inhibition at 1 µg/mL [1, 10]: 52%; inhibition at 10 µg/mL [1, 11]: 44.8%; inhibition at 100 µg/mL [1, 4]: -24.4%; dose response on IL-6, in words [2]: inverse dose response; IL-6 ([2]; 1 μg/ml): 78.39 pg/mL; IL-6 ([2]; 10 μg/ml): 90.55 pg/mL; IL-6 ([2]; 100 μg/ml): 185.71 pg/mL; inhibition at 1 µg/mL [2, 10]: 73.6%; inhibition at 10 µg/mL [2, 11]: 69.5%; inhibition at 100 µg/mL [2, 4]: 37.4%; inhibition of IL-6 production ([2]; listed as Voltaren (Diclofenac)): 74-38%
